# Measurements from patent US20230123601A1, “PHARMACEUTICAL COMBINATION OF ANTIVIRAL AGENTS TARGETING HBV AND/OR AN IMMUNE MODULATOR FOR TREATMENT OF HBV” (priority 2019, published 2023).
# System: HBV
# Assay: HBsAg levels in serum of AAV/HBV mice (CLIA)
# Type: in vivo, C57BL/6 mice
# Set-up: HBsAg levels in serum (Average ± SD): scale not given here
# Source text: The AAV-HBV mouse model is generated by injecting C57BL/6 mice with recombinant adeno-associated virus harboring a replicable HBV genome (AAV-HBV). The rAAV8-1.3 HBV ayw virus stock was purchased from Beijing FivePlus Molecular Medicine Institute (Beijing, China). The animals (male, aged 4-5 weeks upon arrival) were purchased from SLAC Laboratory Animal Co. Ltd (Shanghai, China), acclimatized in the animal facility for 5-7 days, and then injected with 1×10^11 vector genome of AAV-HBV (diluted in 200 μL of PBS) through the tail vein. Persistence expression of HBV genome can be established after three weeks, with high levels of HBV viral markers including HBV DNA, HBsAg, and HBeAg in mouse serum. With stable HBV viremia and competent immune system of the C57BL/6 mice, the AAV-HBV mouse model was used to evaluate the in vivo anti-HBV efficacy of the compounds. The in-life part of the AAV-HBV study was conducted through contracted service at Covance Pharmaceutical Research and Development (Shanghai) Co. Ltd. (Covance Shanghai) and the post-life analysis using the serum was performed internally at Roche Innovation Center Shanghai (RICS).
# Seven days before compound treatment, blood samples were collected for serum preparation (˜15 μL), and based on HBV DNA, HBsAg levels in serum and body weight, the AAV-HBV infected animals were stratified into the different treatment groups.
# Saline (Group 01) and anti-HBV ASO of CMP ID NO: 15_1 at 1.5 or 7.5 mg/kg were dosed sub subcutaneously once a week during Day 0-49 on Days 0, 7, 14, 21, 28, 35, 42 and 49. TLR7 agonist of CMP ID NO: VI 100 mg/kg was administered by oral gavage once every other day during Day 0-55 (QOD) or once weekly during Day 0-49 on Days 0, 7, 14, 21, 28, 35, 42 and 49 (QW). The animals were weekly bled via retro-orbital sinus for sample collection throughout the study.
# Serum HBsAg levels were determined in the serum of infected AAV-HBV mouse using the HBsAg chemoluminescence immunoassay (CLIA) (Autobio diagnostics Co. Ltd., Zhengzhou, China, Cat. no. CL0310-2), according to the manufacturer's protocol. Briefly, 50 μl of serum was transferred to the antibody coated microtiter plate and 50 μl of enzyme conjugate reagent was added. The plate was incubated for 60 min on a shaker at room temperature before all wells were washed six times with washing buffer using an automatic washer. 25 μl of substrate A and then 25 μl of substrate B was added to each well. The plate was incubated for 10 min at RT before luminescence was measured using an Envision luminescence reader (Perkin Elmer). HBsAg is given in the unit IU/ml; where 1 ng HBsAg=1.14 IU.
# To evaluate the combination of the anti-HBV ASO and the TLR7 agonist in an in vivo system, a mouse model of chronic HBV infection was used. In the AAV/HBV mouse model described in the Materials and Method a persistent HBV infection is established resulting in expression of viral markers (HBsAg, HBeAg, HBV DNA) detectable in plasma. The effect on these viral markers upon treatment with the anti-HBV ASO of CMP ID NO: 15_1 (table 2, and FIG. 4) dosed at 1.5 mg/kg or 7.5 mg/kg and the TLR7 agonist of CMP ID NO: VI (table 3) dosed with […] every other day (QOD) or once weekly (QW) in monotherapy or in combination has been evaluated.
compound,measurement,setting,value
"CC[C@H](OC(C)=O)[C@@H]1C[C@@H](O)[C@H](n2c(=O)sc3cnc(N)nc32)O1 [CMP ID NO: VI, [(1S)-1-[(2S,4R,5R)-5-(5-amino-2-oxo-thiazolo[4,5-d]pyrimidin-3-yl)-4-hydroxy-tetrahydrofuran-2-yl]propyl] acetate]",HBsAg levels in serum (Average ± SD),"D56, 15_1 7.5 mg/kg weekly, VI 100 mg/kg QW, or combination of both",2.13 ± 1.00
same,HBsAg levels in serum (Average ± SD),"D63, 15_1 1.5 mg/kg weekly, VI 100 mg/kg QOD, or combination of both",1.61 ± 0.96
same,HBsAg levels in serum (Average ± SD),"D63, 15_1 1.5 mg/kg weekly, VI 100 mg/kg QW, or combination of both",2.43 ± 1.14
same,HBsAg levels in serum (Average ± SD),"D63, 15_1 7.5 mg/kg weekly, VI 100 mg/kg QOD, or combination of both",1.61 ± 0.96
same,HBsAg levels in serum (Average ± SD),"D63, 15_1 7.5 mg/kg weekly, VI 100 mg/kg QW, or combination of both",2.43 ± 1.14
same,HBsAg levels in serum (Average ± SD),"D70, 15_1 1.5 mg/kg weekly, VI 100 mg/kg QOD, or combination of both",1.9 ± 1.23
same,HBsAg levels in serum (Average ± SD),"D70, 15_1 1.5 mg/kg weekly, VI 100 mg/kg QW, or combination of both",2.48 ± 1.23
same,HBsAg levels in serum (Average ± SD),"D70, 15_1 7.5 mg/kg weekly, VI 100 mg/kg QOD, or combination of both",1.90 ± 1.23
same,HBsAg levels in serum (Average ± SD),"D70, 15_1 7.5 mg/kg weekly, VI 100 mg/kg QW, or combination of both",2.48 ± 1.23
same,HBsAg levels in serum (Average ± SD),"D77, 15_1 1.5 mg/kg weekly, VI 100 mg/kg QOD, or combination of both",1.91 ± 1.18
same,HBsAg levels in serum (Average ± SD),"D77, 15_1 1.5 mg/kg weekly, VI 100 mg/kg QW, or combination of both",2.41 ± 1.16
same,HBsAg levels in serum (Average ± SD),"D77, 15_1 7.5 mg/kg weekly, VI 100 mg/kg QOD, or combination of both",1.91 ± 1.18
same,HBsAg levels in serum (Average ± SD),"D77, 15_1 7.5 mg/kg weekly, VI 100 mg/kg QW, or combination of both",2.41 ± 1.16
same,HBsAg levels in serum (Average ± SD),"D84, 15_1 1.5 mg/kg weekly, VI 100 mg/kg QOD, or combination of both",2.25 ± 1.16
same,HBsAg levels in serum (Average ± SD),"D84, 15_1 1.5 mg/kg weekly, VI 100 mg/kg QW, or combination of both",2.66 ± 1.15
same,HBsAg levels in serum (Average ± SD),"D84, 15_1 7.5 mg/kg weekly, VI 100 mg/kg QOD, or combination of both",2.25 ± 1.16
same,HBsAg levels in serum (Average ± SD),"D84, 15_1 7.5 mg/kg weekly, VI 100 mg/kg QW, or combination of both",2.66 ± 1.15
same,HBsAg levels in serum (Average ± SD),"D91, 15_1 1.5 mg/kg weekly, VI 100 mg/kg QOD, or combination of both",2.05 ± 1.35
same,HBsAg levels in serum (Average ± SD),"D91, 15_1 1.5 mg/kg weekly, VI 100 mg/kg QW, or combination of both",2.66 ± 1.44
same,HBsAg levels in serum (Average ± SD),"D91, 15_1 7.5 mg/kg weekly, VI 100 mg/kg QOD, or combination of both",2.05 ± 1.35
same,HBsAg levels in serum (Average ± SD),"D91, 15_1 7.5 mg/kg weekly, VI 100 mg/kg QW, or combination of both",2.66 ± 1.44
same,HBsAg levels in serum (Average ± SD),"D98, 15_1 1.5 mg/kg weekly, VI 100 mg/kg QOD, or combination of both",2.36 ± 1.26
same,HBsAg levels in serum (Average ± SD),"D98, 15_1 1.5 mg/kg weekly, VI 100 mg/kg QW, or combination of both",2.83 ± 1.16
same,HBsAg levels in serum (Average ± SD),"D98, 15_1 7.5 mg/kg weekly, VI 100 mg/kg QOD, or combination of both",2.36 ± 1.26
same,HBsAg levels in serum (Average ± SD),"D98, 15_1 7.5 mg/kg weekly, VI 100 mg/kg QW, or combination of both",2.83 ± 1.16
same,HBsAg levels in serum (Average ± SD),"D105, 15_1 1.5 mg/kg weekly, VI 100 mg/kg QOD, or combination of both",2.41 ± 1.18
same,HBsAg levels in serum (Average ± SD),"D105, 15_1 1.5 mg/kg weekly, VI 100 mg/kg QW, or combination of both",2.81 ± 1.1
same,HBsAg levels in serum (Average ± SD),"D105, 15_1 7.5 mg/kg weekly, VI 100 mg/kg QOD, or combination of both",2.41 ± 1.18
same,HBsAg levels in serum (Average ± SD),"D105, 15_1 7.5 mg/kg weekly, VI 100 mg/kg QW, or combination of both",2.81 ± 1.10
same,HBsAg levels in serum (Average ± SD),"D111, 15_1 1.5 mg/kg weekly, VI 100 mg/kg QOD, or combination of both",2.69 ± 1.38
same,HBsAg levels in serum (Average ± SD),"D111, 15_1 1.5 mg/kg weekly, VI 100 mg/kg QW, or combination of both",3.1 ± 1.12
same,HBsAg levels in serum (Average ± SD),"D111, 15_1 7.5 mg/kg weekly, VI 100 mg/kg QOD, or combination of both",2.69 ± 1.38
same,HBsAg levels in serum (Average ± SD),"D111, 15_1 7.5 mg/kg weekly, VI 100 mg/kg QW, or combination of both",3.10 ± 1.12
same,initial rate of reduction in HBsAg,"TLR7 agonist alone, FIG. 10A",slow initial rate of reduction in HBsAg
same,time of lowest HBsAg,"TLR7 agonist alone, FIG. 10A (100 mg/kg QOD)",42 days
same,suppression of HBsAg,TLR7 agonist at any of the doses,not capable of suppressing HBsAg to a level below the detection limit
